Assays:
piglets = assay: Blood analysis: hematology and clinical chemistry; format: in vivo, pig
Description: (§1) A total of four experiments, each including four treated animals and one control pig, was performed to investigate the action of cereulide on piglets after oral intake of cereulide. Pigs were either challenged orally with a single dose (acute trials) or with daily over a period of 7 days (chronic trial) (see Table 1). One hour before cereulide toxin administration blood samples were taken by puncturing the anterior Vena cava and piglets were weighed for calculation of the cereulide concentration (t = 0 h). In the intoxication experiment with 150 μg kg^-1 blood samples were taken 68 h before the experiment to reduce the distress for the animals at the start day of the experiments. Blood-chemical, immunological, and histological analyses of selected organs as well as quantification of cereulide in organs, tissues, urine and feces were carried out as detailed below.
(§2) After oral administration of cereulide, piglets were monitored for unusual behavior and examined physically with special respect on rectal body temperature as well as pulse and respiration rate, every 2–3 h. Blood samples were taken from the Vena cava cranialis. Urine and feces were collected during the whole experiment and stored at -80°C. After the experiment pigs were anaesthetized by intramuscular injection of a bolus of ketamine (10 mg kg^-1) and azaperone (1.3 mg kg^-1). When sedation was deep enough cerebrospinal fluid (liquor) was taken by lumbar puncture. Finally, pigs were euthanized by intracardial injection of T61®. Animals were then necropsied and parts of the following organs, tissues or body fluids were taken for SIDA-MS analysis: liver, lung, heart, kidney, brain, spleen, small and large intestine, lymph nodes, gastric as well as intestinal contents, skeletal muscle, and abdominal and subcutaneous fat. Samples of liver, lung, heart, kidney, brain, spleen, small, and large intestine were collected for histological analysis.
One milliliter EDTA-stabilized blood and 3 mL heparin-stabilized blood (worked up to serum) were screened for erythrocyte number, hemoglobin, hematocrit, mean cellular volume (MCV), mean cellular hemoglobin (MCH), mean cellular hemoglobin concentration (MCHC), leukocyte number, mean peroxidase index (MPXI), numbers of monocytes, lymphocytes, eosinophils, basophils, lymphoblasts, juvenile and segmented neutrophils, as well as glucose, urea, creatinine, total protein, aspartate amino transferase (AST), alanine amino transferase (ALT), […] (GLDH), gamma glutamyl transferase (GGT), bile acid, lipase, creatine kinase, sodium, potassium, chloride, calcium, and phosphorus at the central diagnostic unit of the University of Veterinary Medicine Vienna.

Large White piglets = assay: Clinical signs after oral administration of cereulide; format: in vivo, pig
Description: In each experiment five Large White piglets, weighing 10–15 kg, were used. All piglets were derived from one single farm in Austria. The animals were placed in metabolic cages 3 days before start of the experiment for acclimatization. Water ad libitum and feed (Ferkelkorn, Garant Tiernahrung, Pöchlarn, Austria) were available before and during the whole experiment.
as §1
On body weight calculated amounts of cereulide, dissolved in ethanol, were mixed with milk (UHT milk; 3.5% fat), and fed to four piglets. Control piglets were fed with milk supplemented with similar ethanol concentrations as the experimental piglets. The experiment started after the uptake of the whole milk cereulide mixture. The milk was checked for bacterial contamination prior to the experiment.
as §2

[1] = test system: Min6 cells and whole mouse pancreatic islets; conditions: ref Vangoitsenhoven et al., 2014; cited from earlier work
Description: Low concentrations of cereulide can cause dysfunction in beta-cell lines ([Vangoitsenhoven et al., 2014]) and have been reported to be detrimental toward isolated porcine pancreatic Langerhans islets ([Virtanen et al., 2008]). Using Min6 cells and whole mouse pancreatic islets as model, it could be shown that low concentrations of cereulide (0.25–0.5 ng/mL) are directly effecting the insulin secretory machinery ([Vangoitsenhoven et al., 2014]). Based on their in vitro findings the authors hypothesized that cereulide may contribute to the rise of prevalence of diabetes observed worldwide, as a ...

[2] = plasma of rabbits, direct intravenous injection; ref Cui et al., 2016; cited from earlier work
[3] = oral doses 10 to 150 μg kg^-1, summary in discussion

SMILES: CC(C)C[C@H]1OC(=O)[C@H](C(C)C)NC(=O)[C@H](C(C)C)OC(=O)[C@@H](C)NC(=O)[C@@H](CC(C)C)OC(=O)[C@H](C(C)C)NC(=O)[C@H](C(C)C)OC(=O)[C@@H](C)NC(=O)[C@@H](CC(C)C)OC(=O)[C@H](C(C)C)NC(=O)[C@H](C(C)C)OC(=O)[C@@H](C)NC1=O [cereulide]
- Influence on blood cell composition and biochemical markers in blood (piglets; acute trials, samples before and after 8 (only 150 μg kg^-1), 24 and 48 h): no significant influence
- Creatine kinase (CK) (piglets; daily oral dose 10 μg kg^-1, after 3 days, all treated pigs): increase
- AST levels (piglets; daily oral dose 10 μg kg^-1, two out of four treated pigs after 3 and 7 days): elevated
- Creatine kinase (CK) levels (piglets; single oral dose 30 μg kg^-1): increased
- Creatine kinase (CK) levels (piglets; single oral dose 150 μg kg^-1): increased
- Leukocytes (piglets; single oral dose 150 μg kg^-1, all animals): increased levels
- Aspartate aminotransferase (AST) (piglets; single oral dose 150 μg kg^-1, three out of four pigs): transient increase
- Pulse and respiration rates, inner body temperature (Large White piglets; all animals, except during periods of seizures and convulsions): normal pulse and respiration rates as well as inner body temperature
- Onset of seizures (Large White piglets; daily oral dose 10 μg kg^-1 for 7 days, all four pigs to varying extents): 2 to 4 h
- Onset of transient depressiveness (Large White piglets; daily oral dose 10 μg kg^-1 for 7 days, all piglets): 2 to 6 h
- Emesis in the pigs (Large White piglets; oral doses 10 to 150 μg kg^-1): only rarely observed
- Onset of observed symptoms in the piglets (Large White piglets; [3]): 1.5 to 3 h
- Time after which symptoms ceased (Large White piglets; [3]): 7 to 9 h
- Duration of transient depressive behavior (Large White piglets; single oral dose 10 μg kg^-1, all treated piglets): 4.5 to 6 h
- Time of vomiting after toxin intake (Large White piglets; single oral dose 10 μg kg^-1, one animal): 11 h
- Time after which all symptoms disappeared (Large White piglets; single oral dose 30 μg kg^-1): 7 to 9 h
- Onset of shivering (Large White piglets; single oral dose 30 μg kg^-1, 2/4 piglets, seizures an additional hour later): 1 h
- Onset of seizures after cereulide intake (Large White piglets; single oral dose 30 μg kg^-1, remaining two piglets): 4 to 6 h
- Onset of lethargic behavior (Large White piglets; single oral dose 150 μg kg^-1, all treated piglets): 1.5 to 2 h
- Time to gradual recovery (Large White piglets; single oral dose 150 μg kg^-1, three of the four piglets): 6 to 7 h
- Low concentrations directly effecting the insulin secretory machinery [1]: 0.25 to 0.5 ng/mL
- Elimination half-life [2]: 10.8 ± 9.1 h

— article PMC6234764, “First Insights Into Within Host Translocation of the Bacillus cereus Toxin Cereulide Using a Porcine Model” (Frontiers in Microbiology, 2018)
